The target of assay [1] is Prostaglandin G/H synthase 1 (Homo sapiens, UniProt P23219). Format: functional.
Assay [2] addresses T1, Estrogen receptor (Homo sapiens, UniProt P03372).
T1 sequence (P03372 whole entry): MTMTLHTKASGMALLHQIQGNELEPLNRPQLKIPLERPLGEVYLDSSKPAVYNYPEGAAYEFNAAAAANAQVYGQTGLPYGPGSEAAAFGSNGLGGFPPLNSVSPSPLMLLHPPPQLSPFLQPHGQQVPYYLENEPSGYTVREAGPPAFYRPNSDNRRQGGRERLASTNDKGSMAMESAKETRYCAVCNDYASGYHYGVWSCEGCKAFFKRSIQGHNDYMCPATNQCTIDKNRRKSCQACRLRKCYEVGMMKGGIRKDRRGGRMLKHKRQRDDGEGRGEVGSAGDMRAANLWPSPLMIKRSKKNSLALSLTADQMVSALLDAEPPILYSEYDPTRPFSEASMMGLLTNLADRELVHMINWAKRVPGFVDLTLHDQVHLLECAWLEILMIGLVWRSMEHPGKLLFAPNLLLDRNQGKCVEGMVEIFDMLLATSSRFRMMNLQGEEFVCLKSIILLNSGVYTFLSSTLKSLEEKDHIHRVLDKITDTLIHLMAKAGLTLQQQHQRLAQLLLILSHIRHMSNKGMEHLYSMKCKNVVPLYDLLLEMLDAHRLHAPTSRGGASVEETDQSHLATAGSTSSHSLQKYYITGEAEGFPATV

Assay [3] deals with 5-hydroxytryptamine receptor 2B (Homo sapiens, UniProt P41595). Format: functional, cell-based.
Chain of 5-hydroxytryptamine receptor 2B (P41595 whole entry): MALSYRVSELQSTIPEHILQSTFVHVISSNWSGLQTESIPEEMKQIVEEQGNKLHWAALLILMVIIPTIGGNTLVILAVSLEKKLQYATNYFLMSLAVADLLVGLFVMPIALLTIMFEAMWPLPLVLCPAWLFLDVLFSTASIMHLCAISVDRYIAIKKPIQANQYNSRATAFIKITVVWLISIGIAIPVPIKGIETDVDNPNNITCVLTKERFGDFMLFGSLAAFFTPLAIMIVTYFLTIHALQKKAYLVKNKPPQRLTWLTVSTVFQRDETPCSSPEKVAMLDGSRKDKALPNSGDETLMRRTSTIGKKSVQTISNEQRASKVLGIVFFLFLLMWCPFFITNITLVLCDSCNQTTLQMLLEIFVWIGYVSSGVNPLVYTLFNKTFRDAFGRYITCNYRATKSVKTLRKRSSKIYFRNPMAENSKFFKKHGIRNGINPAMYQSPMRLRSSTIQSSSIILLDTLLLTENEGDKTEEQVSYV
For assay [4], the target named is Histamine H3 receptor (Homo sapiens, UniProt Q9Y5N1).
Chain of Histamine H3 receptor (Q9Y5N1 whole entry): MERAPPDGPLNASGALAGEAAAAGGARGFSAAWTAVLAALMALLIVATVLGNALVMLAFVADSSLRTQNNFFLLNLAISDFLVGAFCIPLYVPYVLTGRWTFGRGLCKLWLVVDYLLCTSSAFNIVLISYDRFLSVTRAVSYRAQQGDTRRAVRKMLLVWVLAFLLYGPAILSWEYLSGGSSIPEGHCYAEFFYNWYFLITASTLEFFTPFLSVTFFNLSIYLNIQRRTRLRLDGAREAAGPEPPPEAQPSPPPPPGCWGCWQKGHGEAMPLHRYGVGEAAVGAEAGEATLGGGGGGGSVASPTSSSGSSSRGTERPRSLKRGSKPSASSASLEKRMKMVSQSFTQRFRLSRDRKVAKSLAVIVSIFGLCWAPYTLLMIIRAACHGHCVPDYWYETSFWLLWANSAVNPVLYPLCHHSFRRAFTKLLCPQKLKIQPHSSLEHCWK
Assay [5] addresses D(3) dopamine receptor (Homo sapiens, UniProt P35462).
The target of assay [6] is D(1A) dopamine receptor (Homo sapiens, UniProt P21728).
Chain of D(1A) dopamine receptor (P21728 whole entry): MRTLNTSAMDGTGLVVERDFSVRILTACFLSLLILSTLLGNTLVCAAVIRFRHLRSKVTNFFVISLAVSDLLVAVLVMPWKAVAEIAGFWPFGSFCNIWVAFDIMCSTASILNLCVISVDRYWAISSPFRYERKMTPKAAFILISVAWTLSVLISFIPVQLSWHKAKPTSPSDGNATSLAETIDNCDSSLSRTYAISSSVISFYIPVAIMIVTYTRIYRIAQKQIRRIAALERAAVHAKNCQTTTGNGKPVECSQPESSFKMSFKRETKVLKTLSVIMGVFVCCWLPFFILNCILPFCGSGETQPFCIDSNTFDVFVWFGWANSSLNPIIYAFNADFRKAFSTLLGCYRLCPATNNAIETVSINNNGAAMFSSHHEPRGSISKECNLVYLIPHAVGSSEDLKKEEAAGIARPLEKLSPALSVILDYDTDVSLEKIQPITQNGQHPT
In assay [7] the target is Prothrombin (Homo sapiens, UniProt P00734). Format: functional.
For assay [8], the target named is 3',5'-cyclic-AMP phosphodiesterase 4A (Homo sapiens, UniProt P27815). Format: functional.
Chain of 3',5'-cyclic-AMP phosphodiesterase 4A (P27815 whole entry): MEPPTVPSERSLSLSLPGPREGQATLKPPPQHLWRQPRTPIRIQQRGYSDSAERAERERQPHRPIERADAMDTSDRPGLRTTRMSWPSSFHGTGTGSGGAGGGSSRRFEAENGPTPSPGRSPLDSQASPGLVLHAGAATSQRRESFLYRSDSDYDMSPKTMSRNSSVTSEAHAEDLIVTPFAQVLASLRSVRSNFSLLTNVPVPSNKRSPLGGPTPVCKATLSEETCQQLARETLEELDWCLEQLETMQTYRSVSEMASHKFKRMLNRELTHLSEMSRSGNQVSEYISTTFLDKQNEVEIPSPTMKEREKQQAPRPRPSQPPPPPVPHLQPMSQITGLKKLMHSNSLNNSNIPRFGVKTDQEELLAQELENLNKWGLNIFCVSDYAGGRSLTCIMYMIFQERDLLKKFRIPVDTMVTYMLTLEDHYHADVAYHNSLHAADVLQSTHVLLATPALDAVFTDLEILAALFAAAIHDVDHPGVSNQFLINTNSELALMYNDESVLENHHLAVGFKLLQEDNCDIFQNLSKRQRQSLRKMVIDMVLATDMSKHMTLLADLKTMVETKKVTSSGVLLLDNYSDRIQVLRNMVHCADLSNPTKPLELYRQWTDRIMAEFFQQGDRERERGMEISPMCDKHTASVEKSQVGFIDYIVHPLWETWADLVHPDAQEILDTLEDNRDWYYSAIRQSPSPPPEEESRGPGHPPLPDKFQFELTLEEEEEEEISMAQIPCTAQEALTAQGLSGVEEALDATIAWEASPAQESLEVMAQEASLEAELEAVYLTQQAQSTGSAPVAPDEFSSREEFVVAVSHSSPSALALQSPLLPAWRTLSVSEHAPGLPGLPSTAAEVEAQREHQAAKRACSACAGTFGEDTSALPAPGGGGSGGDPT
The target of assay [9] is T2, Adenosine receptor A3 (Homo sapiens, UniProt P0DMS8).
T2 sequence (P0DMS8 whole entry): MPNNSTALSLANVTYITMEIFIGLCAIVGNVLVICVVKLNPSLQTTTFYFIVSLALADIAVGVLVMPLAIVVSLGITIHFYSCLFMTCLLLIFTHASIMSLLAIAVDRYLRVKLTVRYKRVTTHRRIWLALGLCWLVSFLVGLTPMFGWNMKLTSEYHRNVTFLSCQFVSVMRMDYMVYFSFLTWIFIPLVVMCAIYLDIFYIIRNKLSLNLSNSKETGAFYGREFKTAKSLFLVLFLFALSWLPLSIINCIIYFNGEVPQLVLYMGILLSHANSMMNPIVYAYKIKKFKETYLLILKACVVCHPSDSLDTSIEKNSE

Assay [10] addresses Mu-type opioid receptor (Homo sapiens, UniProt P35372).
The target in assay [11] is T3, Amine oxidase [flavin-containing] A (Homo sapiens, UniProt P21397).
T3 sequence (P21397 whole entry): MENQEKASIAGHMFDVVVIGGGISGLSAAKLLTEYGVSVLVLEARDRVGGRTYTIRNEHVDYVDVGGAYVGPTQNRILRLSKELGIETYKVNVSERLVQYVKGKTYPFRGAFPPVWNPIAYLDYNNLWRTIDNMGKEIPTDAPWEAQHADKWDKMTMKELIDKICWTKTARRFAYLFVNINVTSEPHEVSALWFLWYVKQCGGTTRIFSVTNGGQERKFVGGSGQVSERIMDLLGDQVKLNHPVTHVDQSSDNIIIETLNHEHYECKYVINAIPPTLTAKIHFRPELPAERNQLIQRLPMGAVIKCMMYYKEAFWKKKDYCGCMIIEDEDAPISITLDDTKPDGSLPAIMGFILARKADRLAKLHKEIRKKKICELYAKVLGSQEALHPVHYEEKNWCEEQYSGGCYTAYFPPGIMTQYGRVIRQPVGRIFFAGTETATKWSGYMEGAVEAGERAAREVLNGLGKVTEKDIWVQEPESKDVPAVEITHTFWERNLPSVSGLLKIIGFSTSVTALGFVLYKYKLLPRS
The assay is classed as functional.

The target in assay [12] is T4, Thromboxane A2 receptor (Homo sapiens, UniProt P21731).
T4 sequence (P21731 whole entry): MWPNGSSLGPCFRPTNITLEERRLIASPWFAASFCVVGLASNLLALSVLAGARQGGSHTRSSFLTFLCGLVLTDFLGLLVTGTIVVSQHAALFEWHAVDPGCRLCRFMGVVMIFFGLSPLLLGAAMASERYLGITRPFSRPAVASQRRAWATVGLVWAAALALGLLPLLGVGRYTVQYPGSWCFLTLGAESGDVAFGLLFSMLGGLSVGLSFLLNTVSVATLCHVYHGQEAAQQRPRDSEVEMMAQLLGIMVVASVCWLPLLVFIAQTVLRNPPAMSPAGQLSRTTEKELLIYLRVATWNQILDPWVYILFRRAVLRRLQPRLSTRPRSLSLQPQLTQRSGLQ
Format: functional, cell-based.

For assay [13], the target named is T5, 5-hydroxytryptamine receptor 1A (Homo sapiens, UniProt P08908).
T5 sequence (P08908 whole entry): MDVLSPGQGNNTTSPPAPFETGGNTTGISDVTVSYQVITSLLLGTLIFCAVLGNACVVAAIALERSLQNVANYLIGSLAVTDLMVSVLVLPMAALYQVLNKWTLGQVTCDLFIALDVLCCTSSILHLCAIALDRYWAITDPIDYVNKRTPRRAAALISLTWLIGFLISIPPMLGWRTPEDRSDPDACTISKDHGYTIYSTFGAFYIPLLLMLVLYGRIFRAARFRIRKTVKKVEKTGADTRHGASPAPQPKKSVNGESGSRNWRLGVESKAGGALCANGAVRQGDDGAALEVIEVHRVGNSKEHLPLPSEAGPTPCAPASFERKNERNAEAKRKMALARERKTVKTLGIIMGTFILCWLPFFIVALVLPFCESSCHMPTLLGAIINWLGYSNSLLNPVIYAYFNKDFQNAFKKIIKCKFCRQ

A word on the AC50: it is the concentration at which the activity in the assay is half-maximal.

The structures appear in SMILES notation.
Also: assay procedure not described here.

Chain of D(3) dopamine receptor (P35462 whole entry): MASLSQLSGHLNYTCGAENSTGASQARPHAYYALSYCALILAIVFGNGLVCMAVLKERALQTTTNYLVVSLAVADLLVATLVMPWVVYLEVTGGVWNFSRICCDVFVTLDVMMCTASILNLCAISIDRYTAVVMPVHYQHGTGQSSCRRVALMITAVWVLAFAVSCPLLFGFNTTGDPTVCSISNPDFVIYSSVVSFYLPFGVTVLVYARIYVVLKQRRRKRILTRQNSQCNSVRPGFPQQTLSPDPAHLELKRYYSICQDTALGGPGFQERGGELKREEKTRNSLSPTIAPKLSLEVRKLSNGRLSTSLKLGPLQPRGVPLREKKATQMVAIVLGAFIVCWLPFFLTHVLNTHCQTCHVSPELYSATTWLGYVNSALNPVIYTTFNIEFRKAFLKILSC
Chain of Mu-type opioid receptor (P35372 whole entry): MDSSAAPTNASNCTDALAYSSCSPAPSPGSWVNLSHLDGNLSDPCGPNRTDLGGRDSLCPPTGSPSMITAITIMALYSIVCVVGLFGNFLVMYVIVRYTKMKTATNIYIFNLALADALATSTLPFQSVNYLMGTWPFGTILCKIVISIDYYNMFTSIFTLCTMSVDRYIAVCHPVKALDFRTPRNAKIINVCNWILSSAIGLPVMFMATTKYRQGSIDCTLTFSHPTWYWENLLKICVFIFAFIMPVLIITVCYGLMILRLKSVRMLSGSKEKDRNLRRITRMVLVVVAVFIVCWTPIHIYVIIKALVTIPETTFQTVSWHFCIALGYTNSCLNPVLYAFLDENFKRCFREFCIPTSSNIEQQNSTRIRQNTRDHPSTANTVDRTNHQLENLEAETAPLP
Chain of Prostaglandin G/H synthase 1 (P23219 whole entry): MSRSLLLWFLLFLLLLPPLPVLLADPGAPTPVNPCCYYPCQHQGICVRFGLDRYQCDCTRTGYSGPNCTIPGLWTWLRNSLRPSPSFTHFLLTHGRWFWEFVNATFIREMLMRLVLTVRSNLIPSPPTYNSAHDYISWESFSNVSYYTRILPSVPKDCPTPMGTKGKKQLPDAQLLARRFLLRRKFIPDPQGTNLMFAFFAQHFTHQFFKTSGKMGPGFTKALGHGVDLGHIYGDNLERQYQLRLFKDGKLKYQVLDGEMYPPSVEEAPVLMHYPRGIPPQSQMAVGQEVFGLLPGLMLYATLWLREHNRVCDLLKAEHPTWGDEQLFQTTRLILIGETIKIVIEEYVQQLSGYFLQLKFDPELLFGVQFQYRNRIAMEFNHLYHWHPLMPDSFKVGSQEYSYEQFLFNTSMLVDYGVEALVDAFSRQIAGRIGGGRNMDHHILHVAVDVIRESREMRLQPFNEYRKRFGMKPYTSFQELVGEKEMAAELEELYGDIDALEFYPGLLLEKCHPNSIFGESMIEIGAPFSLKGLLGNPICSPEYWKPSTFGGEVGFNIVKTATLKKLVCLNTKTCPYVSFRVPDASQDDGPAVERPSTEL

As for `CC(=O)OC(C)OC(=O)C(C)c1ccc(-c2ccccc2)c(F)c1` (stereo not drawn), the AC50 is 0.0309 µM in assay [1]; greater than 30 µM in assay [2]; greater than 30 µM in [3]; greater than 30 µM in [4]; greater than 30 µM in [5]; greater than 30 µM in [6]. In addition, the AC50 is greater than 30 µM in assay [7]; 20.2 µM in [8]; greater than 30 µM in assay [9]; greater than 30 µM in [10]; greater than 30 µM in assay [11]; greater than 30 µM in assay [12]. Also, the half-maximal activity concentration (AC50) in assay [13] was greater than 30 µM.

For the compound `CNC(=O)C[C@@H](N)C(=O)N[C@@H](C(=O)N[C@@H]1C(=O)N2[C@@H]1SC(C)(C)[C@@H]2C(=O)O)c1ccc(O)cc1` [ASPOXICILLIN], the AC50 in [1], in assay [2], in assay [3], in assay [4], in assay [5] and in assay [6] was greater than 30 µM in each case. Also, the AC50 in assay [7], in assay [8], in assay [9], in assay [10], in assay [11] and in [12] was greater than 30 µM each time. In assay [13], this compound returned an AC50 greater than 30 µM.

For the compound `COC(=O)C1=C(C)NC(C)=C(C(=O)O[C@H]2CCN(Cc3ccccc3)C2)[C@H]1c1cccc([N+](=O)[O-])c1` [BARNIDIPINE], the AC50 in assay [1] was greater than 30 µM; in assay [2], greater than 30 µM; in [3], greater than 30 µM; in [4], greater than 30 µM; in assay [5], 4.3 µM; in assay [6], 8.89 µM. In addition, the AC50 was greater than 30 µM in [7]; greater than 30 µM in [8]; 4.65 µM in assay [9]; 3.24 µM in assay [10]; greater than 30 µM in [11]; greater than 30 µM in assay [12]. In addition, the activity in [13] was half-maximal at 6.56 µM (AC50).

With `Cc1nnc(SCC2=C(C(=O)O)N3C(=O)[C@@H](NC(=O)Cn4cc(Cl)c(=O)c(Cl)c4)[C@H]3SC2)s1` [CEFAZEDONE], the AC50 is 8.23 µM in assay [1]; greater than 30 µM in [2]; greater than 30 µM in assay [3]; greater than 30 µM in assay [4]; greater than 30 µM in assay [5]; greater than 30 µM in assay [6]. Also, the AC50 is greater than 30 µM in assay [7]; 28.1 µM in [8]; greater than 30 µM in [9]; greater than 30 µM in assay [10]; greater than 30 µM in [11]; greater than 30 µM in [12]. Further, in assay [13], the AC50 was greater than 30 µM.

Take `Nc1ncnc(Nc2ccc(Cl)cc2)n1` [CHLORAZANIL]: the AC50 in assay [1], in assay [2], in assay [3], in assay [4], in assay [5] and in assay [6] was greater than 30 µM each time. In addition, the AC50 was greater than 30 µM in assay [7]; 19.7 µM in assay [8]; 7.95 µM in [9]; greater than 30 µM in [10]; greater than 30 µM in assay [11]; greater than 30 µM in assay [12]. In addition, in [13], the AC50 was greater than 30 µM.

Turning to `O=C(O)CC(O)(CC(=O)O)C(=O)O` [CITRIC ACID], the concentration at half-maximal activity (AC50) in [1], in assay [2], in assay [3], in [4], in [5] and in assay [6] was greater than 30 µM throughout. Besides, the AC50 in assay [7], in assay [8], in [9], in assay [10], in [11] and in assay [12] was greater than 30 µM in each case. Further, the AC50 in assay [13] is greater than 30 µM.

For the compound `CC[C@H]1OC(=O)[C@H](C)[C@@H](O[C@H]2C[C@@](C)(OC)[C@@H](O)[C@H](C)O2)[C@H](C)[C@@H](O[C@@H]2O[C@H](C)C[C@H](N(C)C)[C@H]2O)[C@](C)(OC)C[C@@H](C)C(=O)[C@H](C)[C@@H](O)[C@]1(C)O` [CLARITHROMYCIN], the AC50 in assay [1], in [2], in assay [3], in [4], in [5] and in assay [6] was greater than 30 µM each time. The AC50 in assay [7], in assay [8], in assay [9], in assay [10], in assay [11] and in assay [12] was greater than 30 µM throughout. This compound also returned an AC50 in assay [13] greater than 30 µM.

Regarding `CCC[C@@H]1C[C@@H](C(=O)N[C@@H]([C@H]2O[C@H](SC)[C@H](OP(=O)(O)O)[C@@H](O)[C@H]2O)[C@H](C)Cl)N(C)C1` [CLINDAMYCIN PHOSPHATE], the AC50 in [1], in [2], in assay [3], in assay [4], in [5] and in [6] was greater than 30 µM each time. Further, the AC50 in assay [7], in assay [8], in [9], in [10], in assay [11] and in [12] was greater than 30 µM each time. In assay [13], this compound registered an AC50 greater than 30 µM.

For `c1ccc2c(CC3=NCCN3)cccc2c1` [NAPHAZOLINE], the AC50 in assay [1], in assay [2], in [3], in assay [4], in assay [6] and in assay [7] was greater than 30 µM throughout. Also, the AC50 in [8] is greater than 30 µM; in assay [9] it was greater than 30 µM; in assay [10], 8.37 µM; in assay [11], greater than 30 µM; in assay [12], greater than 30 µM; in [13], 0.114 µM.

For the compound `N[C@@H](Cc1c[nH]c2ccc(O)cc12)C(=O)O` [OXITRIPTAN], the AC50 is greater than 3 µM in assay [1]; greater than 30 µM in [2]; 10.1 µM in assay [3]; greater than 30 µM in assay [4]; greater than 30 µM in [5]; greater than 30 µM in assay [6]. Moreover, the half-maximal activity concentration (AC50) was greater than 30 µM in assay [7]; greater than 30 µM in [8]; 0.765 µM in assay [9]; greater than 30 µM in assay [10]; greater than 30 µM in assay [11]; greater than 30 µM in assay [12].

(Values after ChEMBL document CHEMBL5291721, “A preclinical secondary pharmacology resource illuminates target-adverse drug reaction associations of marketed drugs” (Nat Commun, 2023).)
